Test system: M1 macrophages and M2 macrophages differentiated from mouse bone marrow cells
Experiment: Subtype identification by staining and flow cytometry of M1 and M2 macrophages differentiated from mouse bone marrow cells
Type: cell-based, Balb/c mouse
Conditions: for Selectivity: subtype strongly stained
Procedure: The culture of subtypes was performed according to a protocol described in NPL 7. Specifically, bone marrow cells collected from the femur of a Balb/c mouse of 8 to 10 weeks old were dispersed to a concentration of 1×10^6/mL in an IMDM containing 20% FBS and 1% P/S, and 1×10^7 cells were seeded in a 100 mm dish. After further adding an M-CSF (manufactured by Pepro Tech) thereto to a concentration of 50 ng/mL, the cells were incubated for 3 to 4 days in the presence of 5% CO2 at 37° C., so as to differentiate macrophage precursor cells to macrophages. After exchanging the medium, the M-CSF was added to a concentration of 50 ng/mL, and the incubation was performed for further 3 to 4 days in the presence of 5% CO2 at 37° C., and then, the resulting cells were differentiated to macrophage. By adding 200 ng of interferon-γ and 1 μg of […] (both manufactured by Pepro Tech) to the IMDM containing 5% FBS and 1% P/S, the cells were differentiated to the subtype M1. Besides, by adding 100 ng of IL-4 to the IMDM containing 5% FBS and 1% P/S, the cells were differentiated to the subtype M2. After performing the incubation for further 3 days in the presence of 5% CO2 at 37° C., the resultant was rinsed with PBS, and PBS containing 0.25% trypsin and 1 mM EDTA (ethylenediaminetetraacetic acid) was used for collecting, from the dish, the macrophages having been differentiated to the subtypes M1 and M2.
Thereafter, the tube was centrifuged at 180 G for 10 minutes to remove the supernatant, a dye for identifying dead cells (aqua fluorescent reactive dye, manufactured by Invitrogen; which is hereinafter sometimes abbreviated as aqua) was added thereto, and the resultant was incubated at 4° C. for 10 minutes. Subsequently, the tube was centrifuged at 180 G for 10 minutes to remove the supernatant, cells were suspended in a FACS buffer to be analyzed by using FACSCanto (trademark) II flow cytometry apparatus manufactured by BD.
The analysis was performed on a cell population showing a low signal for the aqua, so as to analyze a cell population from which dead cells were eliminated. […] A histogram was prepared by plotting fluorescence intensity obtained in the FITC channel on the abscissa and plotting the number of cells at each fluorescence intensity on the ordinate, which is shown in FIG. 2.
Histograms were prepared by plotting fluorescence intensities obtained in the respective channels on the abscissa and plotting the numbers of cells at each fluorescence intensity on the ordinate. A difference between a fluorescence intensity (FM1) at a peak top of the histogram of the M1 macrophage and a fluorescence intensity (FM2) at a peak top of the histogram of the M2 macrophage is divided by a sum of a peak width (WM1) of the histogram of the M1 macrophage and a peak width (WM2) of the histogram of the M2 macrophage, so as to obtain a resolution R, which was used as an index of the identification ability for a subtype (see the following expression (1)). Resolution R=|FM1−FM2|/(WM1+WM2) Expression (1)

[1] = R=|FM1−FM2|/(WM1+WM2), compound 1 μM
[2] = fluorescence intensity at peak top of histogram, compound 1 μM, 37° C., 30 minutes
[3] = M1 vs M2 macrophages from mouse bone marrow cells, general formula (6) dyes (Table 7)
[4] = class based on resolution R, general formula (6) dyes (Table 7)
[5] = mouse bone marrow-derived M1 macrophages, channel listed per compound, general formula (6) dyes (Table 7)
[6] = mouse bone marrow-derived M2 macrophages, channel listed per compound, general formula (6) dyes (Table 7)
[7] = M1 vs M2 macrophages from mouse bone marrow cells, general formula (11) dyes (Table 9)
[8] = class based on resolution R, general formula (11) dyes (Table 9)
[9] = mouse bone marrow-derived M1 macrophages, channel listed per compound, general formula (11) dyes (Table 9)
[10] = mouse bone marrow-derived M2 macrophages, channel listed per compound, general formula (11) dyes (Table 9)

Compound: CCOC(=O)Cn1c(=O)/c(=C\c2ccc3c(c2)C2CCCC2N3Cc2ccccc2)s/c1=C1/SC(=O)N(CC)C1=O (stereo not drawn) [(42)]
- Resolution ratio R [1]: 0.616
- Peak position of M1 macrophage [2]: 4.19
- Peak position of M2 macrophage [2]: 1.79
- Evaluation of macrophage subtype identification (rated from resolution R): A (The compound is very good in the subtype identification (namely, the resolution R is 0.5 or more))

Compound: CC1(C)C(/C=C/C=C/C=C/C=C2\N(CCCCS(=O)(=O)[O-])c3ccccc3C2(C)C)=[N+](CCCCS(=O)(=O)[O-])c2ccccc21.[Na+] [(88)]
- Resolution ratio R [3]: 0.241
- Evaluation of macrophage subtype identification [4]: B (the compound is good in the subtype identification (namely, the resolution R is 0.15 or more and less than 0.5))
- Peak position of M1 macrophage [5]: 0.95
- Peak position of M2 macrophage [6]: 1.48

Compound: CC1=CC(C)=[N+]2C1=C(c1ccccc1)c1c(C)cc(C)n1[B-]2(F)F [(148)]
- Resolution ratio R [7]: 0.193
- Evaluation of macrophage subtype identification [8]: B (the compound is good in the subtype identification (namely, the resolution R is 0.15 or more and less than 0.5))
- Peak position of M1 macrophage [9]: 109
- Peak position of M2 macrophage [10]: 151

Compound: Cc1cc(C)n2c1C=C1C=CC(CCC(=O)NN)=[N+]1[B-]2(F)F [(166)]
- Resolution ratio R [7]: 0.722
- Evaluation of macrophage subtype identification [8]: A (The compound is very good in the subtype identification (namely, the resolution R is 0.5 or more))
- Peak position of M1 macrophage [9]: 127
- Peak position of M2 macrophage [10]: 56.3

Compound: COc1ccc2cc(N3c4ccc(/C=C5\C(=O)N(c6ccc(C(=O)O)cc6)N=C5C)cc4C4CCCC43)ccc2c1 (stereo not drawn) [(36)]
- Resolution ratio R [1]: 0.344
- Peak position of M1 macrophage [2]: 5.70
- Peak position of M2 macrophage [2]: 3.82
- Evaluation of macrophage subtype identification (rated from resolution R): B (the compound is good in the subtype identification (namely, the resolution R is 0.15 or more and less than 0.5))

Compound: COc1ccc(N2c3ccc(/C=C/C4=[N+](C)c5ccccc5C4(C)C)cc3C3CCCC32)cc1 (stereo not drawn) [(62)]
- Resolution ratio R [1]: 0.561
- Peak position of M1 macrophage [2]: 193
- Peak position of M2 macrophage [2]: 333
- Evaluation of macrophage subtype identification (rated from resolution R): A (The compound is very good in the subtype identification (namely, the resolution R is 0.5 or more))
- Selectivity: M2

Compound: CCC1=C(C)C2=C(C)c3c(C)c(CC)c(C)n3[B-](C#C[Si](C)(C)C)(C#C[Si](C)(C)C)[N+]2=C1C [compound (154)]
- Resolution ratio R [7]: 0.160
- Evaluation of macrophage subtype identification [8]: B (the compound is good in the subtype identification (namely, the resolution R is 0.15 or more and less than 0.5))
- Peak position of M1 macrophage [9]: 1.25
- Peak position of M2 macrophage [10]: 1.63

Compound: CC1(C)C(/C=C/C=C/C=C/C=C2\N(CCCCCC(=O)[O-])c3ccccc3C2(C)C)=[N+](CCCCCC(=O)[O-])c2ccccc21.[Na+] [(91)]
- Resolution ratio R [3]: 0.476
- Evaluation of macrophage subtype identification [4]: B (the compound is good in the subtype identification (namely, the resolution R is 0.15 or more and less than 0.5))
- Peak position of M1 macrophage [5]: 2.96
- Peak position of M2 macrophage [6]: 13.89

Compound: CCN1c2ccc(/C=C3/SC(=S)N(CC(=O)O)C3=O)cc2C2CCCC21 (stereo not drawn) [(26)]
- Resolution ratio R [1]: 0.202
- Peak position of M1 macrophage [2]: 3.51
- Peak position of M2 macrophage [2]: 4.49
- Evaluation of macrophage subtype identification (rated from resolution R): B (the compound is good in the subtype identification (namely, the resolution R is 0.15 or more and less than 0.5))

Compound: CCN(CC)c1ccc2cc(C(=O)c3cc4ccc(N(CC)CC)cc4oc3=O)c(=O)oc2c1 [comparative compound (4), reference compound]
- Resolution ratio R (M1 vs M2 macrophages from mouse bone marrow cells, general formula (10) dyes (Table 8)): 0.053
- Evaluation of macrophage subtype identification (class based on resolution R, general formula (10) dyes (Table 8)): C (the compound cannot identify the subtypes (namely, the resolution R is less than 0.15))
- difference in the staining intensity between the M1 macrophages and the M2 macrophages / identification (mouse bone marrow derived): no difference in the staining intensity
- Peak position of M1 macrophage (mouse bone marrow-derived M1 macrophages, channel listed per compound, general formula (10) dyes (Table 8)): 0.88
- Peak position of M2 macrophage (mouse bone marrow-derived M2 macrophages, channel listed per compound, general formula (10) dyes (Table 8)): 1.05
- Selectivity (general formula (10) dyes (Table 8)): No

Compound: O=C(O)Cn1c(=O)/c(=C\c2ccc3c(c2)C2CCCC2N3c2ccc(C=C(c3ccccc3)c3ccccc3)cc2)s/c1=C1/CC(=S)N(Cc2ccccc2)C1=O (stereo not drawn) [(20)]
- Resolution ratio R [1]: 0.290
- Peak position of M1 macrophage [2]: 4.47
- Peak position of M2 macrophage [2]: 2.10
- Evaluation of macrophage subtype identification (rated from resolution R): B (the compound is good in the subtype identification (namely, the resolution R is 0.15 or more and less than 0.5))

Compound: CCN1/C(=C\C=C\c2oc3ccccc3[n+]2CC)Oc2ccccc21 [(98)]
- Resolution ratio R [3]: 0.507
- Evaluation of macrophage subtype identification [4]: A (The compound is very good in the subtype identification (namely, the resolution R is 0.5 or more))
- Peak position of M1 macrophage [5]: 21.95
- Peak position of M2 macrophage [6]: 61.59

Compound: COc1ccc2cc(N3c4ccc(/C=C5/SC(=S)N(CCC(=O)O)C5=O)cc4C4CCCC43)ccc2c1 (stereo not drawn) [(22)]
- Resolution ratio R [1]: 0.389
- Peak position of M1 macrophage [2]: 199
- Peak position of M2 macrophage [2]: 313
- Evaluation of macrophage subtype identification (rated from resolution R): B (the compound is good in the subtype identification (namely, the resolution R is 0.15 or more and less than 0.5))

Compound: CCN1/C(=C\C=C\C2=[N+](CC)c3ccccc3C23CCCCC3)C2(CCCCC2)c2ccccc21 [(99)]
- Resolution ratio R [3]: 0.673
- Evaluation of macrophage subtype identification [4]: A (The compound is very good in the subtype identification (namely, the resolution R is 0.5 or more))
- Peak position of M1 macrophage [5]: 191.14
- Peak position of M2 macrophage [6]: 331.51

Compound: Cc1cc(C)n2c1C=C1C=CC(CCC(=O)O)=[N+]1[B-]2(F)F [(157)]
- Resolution ratio R [7]: 0.637
- Evaluation of macrophage subtype identification [8]: A (The compound is very good in the subtype identification (namely, the resolution R is 0.5 or more))
- Peak position of M1 macrophage [9]: 2.57
- Peak position of M2 macrophage [10]: 5.62

Compound: CC1=NN(c2ccc(C(=O)O)cc2)C(=O)/C1=C\c1ccc2c(c1)C1CCCC1N2c1ccccc1 (stereo not drawn) [(35)]
- Resolution ratio R [1]: 0.192
- Peak position of M1 macrophage [2]: 1.15
- Peak position of M2 macrophage [2]: 1.29
- Evaluation of macrophage subtype identification (rated from resolution R): B (the compound is good in the subtype identification (namely, the resolution R is 0.15 or more and less than 0.5))

Compound: O=C(O)CN1C(=O)/C(=C\c2ccc3c(c2)C2CCCC2N3c2ccccc2)SC1=S (stereo not drawn) [(24)]
- Resolution ratio R [1]: 0.347
- Peak position of M1 macrophage [2]: 18.1
- Peak position of M2 macrophage [2]: 27.6
- Evaluation of macrophage subtype identification (rated from resolution R): B (the compound is good in the subtype identification (namely, the resolution R is 0.15 or more and less than 0.5))

Compound: CCN1C(=O)/C(=c2\s/c(=C/c3ccc4c(c3)CC(C)N4CC)c(=O)n2CC(=O)O)SC1=S (stereo not drawn) [(57)]
- Resolution ratio R [1]: 0.167
- Peak position of M1 macrophage [2]: 4.20
- Peak position of M2 macrophage [2]: 3.59
- Evaluation of macrophage subtype identification (rated from resolution R): B (the compound is good in the subtype identification (namely, the resolution R is 0.15 or more and less than 0.5))

Compound: CCN1/C(=C\C=C\c2ccc3ccccc3[n+]2CC)C=Cc2ccccc21 [(104)]
- Resolution ratio R [3]: 0.698
- Evaluation of macrophage subtype identification [4]: A (The compound is very good in the subtype identification (namely, the resolution R is 0.5 or more))
- Peak position of M1 macrophage [5]: 95.26
- Peak position of M2 macrophage [6]: 197.19
- Selectivity (general formula (6) dyes (Table 7)): M2

Compound: N#C/C(=C\C=C\c1ccc2c(c1)C1CCCC1N2c1ccc(C=C(c2ccccc2)c2ccccc2)cc1)C(=O)O (stereo not drawn) [(74)]
- Resolution ratio R [1]: 0.538
- Peak position of M1 macrophage [2]: 2.52
- Peak position of M2 macrophage [2]: 1.25
- Evaluation of macrophage subtype identification (rated from resolution R): A (The compound is very good in the subtype identification (namely, the resolution R is 0.5 or more))

— patent US10041937B2, “Macrophage identification agent, and identification method, sorting method, evaluation method, screening method and kit using the macrophage identifier agent” (CANON KABUSHIKI KAISHA, priority 2013, dated 2018)
